Test results reported in US12077503B2, “Substituted cyclic amides and their use as herbicides” (FMC CORPORATION, priority 2015, dated 2024).

How the values were obtained:
Type in all cases: in vivo
[1] = tested on: barnyardgrass (Echinochloa crus-galli); test: Test G Pre-Emergence Protocol; conditions: Echinochloa crus-galli, pre-emergence, 312 h, evaluated after 13 days; for pest or weed control at 15.625 g/ha: 15.625 g ai/ha, read-out: Barnyard grass damage rating (100=total damage to plant; 0=no damage to plant); for pest or weed control at 62.5 g/ha: 62.5 g ai/ha, 100=total damage to plant, 0=no damage to plant, read-out: plant damage rating, Barnyardgrass; for pest or weed control at 250 g/ha: 250 g ai/ha, read-out: Barnyardgrass damage rating (100=total damage to plant; 0=no damage to plant)
In short: (§1)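 Scores are visual damage ratings from 0 (no damage) to 100 (total plant kill), taken 13 days after treatment. Compound was sprayed one day post-sowing at 15.625, 62.5 or 250 g/ha in 50:50 acetone/water with 0.5% Tween 20.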

[2] = tested on: corn (Zea mays); test: Test G Pre-Emergence Protocol; conditions: Zea mays, pre-emergence, 312 h, evaluated after 13 days; for plant injury at 15.625 g/ha: 15.625 g ai/ha; for plant injury at 15.625 g/ha / plant injury at 250 g/ha: read-out: Corn damage rating (100=total damage to plant; 0=no damage to plant); for plant injury at 62.5 g/ha: 62.5 g ai/ha, 100=total damage to plant, 0=no damage to plant, read-out: plant damage rating, Corn; for plant injury at 250 g/ha: 250 g ai/ha
In short: as §1

[3] = tested on: giant foxtail (Setaria faberi); test: Test G Pre-Emergence Protocol; conditions: Setaria faberi, pre-emergence, 312 h, evaluated after 13 days; for pest or weed control at 15.625 g/ha: 15.625 g ai/ha; for pest or weed control at 15.625 g/ha / pest or weed control at 250 g/ha: read-out: Foxtail, Giant damage rating (100=total damage to plant; 0=no damage to plant); for pest or weed control at 62.5 g/ha: 62.5 g ai/ha, 100=total damage to plant, 0=no damage to plant, read-out: plant damage rating, Foxtail, Giant; for pest or weed control at 250 g/ha: 250 g ai/ha
In short: as §1

[4] = tested on: ivy-leaved morning glory (Ipomoea hederacea); test: Test G Pre-Emergence Protocol; conditions: Ipomoea, pre-emergence, 312 h, evaluated after 13 days; for pest or weed control at 15.625 g/ha: 15.625 g ai/ha, read-out: Morning-glory, Ivy-leaved damage rating (100=total damage to plant; 0=no damage to plant); for pest or weed control at 62.5 g/ha: 62.5 g ai/ha, 100=total damage to plant, 0=no damage to plant, read-out: plant damage rating, Morningglory, Ivy-leaved; for pest or weed control at 250 g/ha: 250 g ai/ha, read-out: Morningglory, Ivy-leaved damage rating (100=total damage to plant; 0=no damage to plant)
In short: as §1

[5] = tested on: redroot pigweed (Amaranthus retroflexus); test: Test G Pre-Emergence Protocol; conditions: Amaranthus retroflexus, pre-emergence, 312 h, evaluated after 13 days; for pest or weed control at 15.625 g/ha: 15.625 g ai/ha; for pest or weed control at 15.625 g/ha / pest or weed control at 250 g/ha: read-out: Pigweed, Redroot damage rating (100=total damage to plant; 0=no damage to plant); for pest or weed control at 62.5 g/ha: 62.5 g ai/ha, 100=total damage to plant, 0=no damage to plant, read-out: plant damage rating, Pigweed, Redroot; for pest or weed control at 250 g/ha: 250 g ai/ha
In short: as §1

[6] = tested on: velvetleaf (Abutilon theophrasti); test: Test G Pre-Emergence Protocol; conditions: Abutilon theophrasti, pre-emergence, 312 h, evaluated after 13 days; for pest or weed control at 15.625 g/ha: 15.625 g ai/ha; for pest or weed control at 15.625 g/ha / pest or weed control at 250 g/ha: read-out: Velvetleaf damage rating (100=total damage to plant; 0=no damage to plant); for pest or weed control at 62.5 g/ha: 62.5 g ai/ha, 100=total damage to plant, 0=no damage to plant, read-out: plant damage rating, Velvetleaf; for pest or weed control at 250 g/ha: 250 g ai/ha
In short: as §1

[7] = tested on: barnyardgrass (Echinochloa crus-galli); test: Test G Post-Emergence Protocol; conditions: Echinochloa crus-galli, post-emergence, 312 h; for pest or weed control at 15.625 g/ha: 15.625 g ai/ha, evaluated after 13 days (100=total damage to plant; 0=no damage to plant), read-out: Barnyardgrass damage rating; for pest or weed control at 62.5 g/ha: 62.5 g ai/ha, read-out: Barnyardgrass damage rating (100=total damage to plant; 0=no damage to plant); for pest or weed control at 62.5 g/ha / pest or weed control at 250 g/ha: evaluated after 13 days; for pest or weed control at 250 g/ha: 250 g ai/ha, read-out: damage to plant, Barnyardgrass (100=total damage to plant; 0=no damage to plant)
In short: (§2)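 A glasshouse post-emergence test: 8-day-old plants sprayed at 15.625, 62.5 or 250 g/ha, then grown at 24/16 °C day/night with 14 h light and 65% humidity. Damage rated 13 days later, 0–100.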

[8] = tested on: corn (Zea mays); test: Test G Post-Emergence Protocol; conditions: Zea mays, post-emergence, 312 h; for plant injury at 15.625 g/ha: 15.625 g ai/ha, evaluated after 13 days (100=total damage to plant; 0=no damage to plant), read-out: Corn damage rating; for plant injury at 62.5 g/ha: 62.5 g ai/ha, read-out: Corn damage rating (100=total damage to plant; 0=no damage to plant); for plant injury at 62.5 g/ha / plant injury at 250 g/ha: evaluated after 13 days; for plant injury at 250 g/ha: 250 g ai/ha, read-out: damage to plant, Corn (100=total damage to plant; 0=no damage to plant)
In short: as §2

[9] = tested on: giant foxtail (Setaria faberi); test: Test G Post-Emergence Protocol; conditions: Setaria faberi, post-emergence, 312 h; for pest or weed control at 15.625 g/ha: 15.625 g ai/ha, evaluated after 13 days (100=total damage to plant; 0=no damage to plant), read-out: Foxtail, Giant damage rating; for pest or weed control at 62.5 g/ha: 62.5 g ai/ha, read-out: Foxtail, Giant damage rating (100=total damage to plant; 0=no damage to plant); for pest or weed control at 62.5 g/ha / pest or weed control at 250 g/ha: evaluated after 13 days; for pest or weed control at 250 g/ha: 250 g ai/ha, read-out: damage to plant, Foxtail, Giant (100=total damage to plant; 0=no damage to plant)
In short: as §2

[10] = tested on: ivy-leaved morning glory (Ipomoea hederacea); test: Test G Post-Emergence Protocol; conditions: Ipomoea, post-emergence, 312 h; for pest or weed control at 15.625 g/ha: 15.625 g ai/ha, evaluated after 13 days (100=total damage to plant; 0=no damage to plant), read-out: Morningglory, Ivy-leaved damage rating; for pest or weed control at 62.5 g/ha: 62.5 g ai/ha, read-out: Morningglory, Ivy-leaved damage rating (100=total damage to plant; 0=no damage to plant); for pest or weed control at 62.5 g/ha / pest or weed control at 250 g/ha: evaluated after 13 days; for pest or weed control at 250 g/ha: 250 g ai/ha, read-out: damage to plant, Morningglory, Ivy-leaved (100=total damage to plant; 0=no damage to plant)
In short: as §2

[11] = tested on: redroot pigweed (Amaranthus retroflexus); test: Test G Post-Emergence Protocol; conditions: Amaranthus retroflexus, post-emergence, 312 h; for pest or weed control at 15.625 g/ha: 15.625 g ai/ha, evaluated after 13 days (100=total damage to plant; 0=no damage to plant), read-out: Pigweed, Redroot damage rating; for pest or weed control at 62.5 g/ha: 62.5 g ai/ha, read-out: Pigweed, Redroot damage rating (100=total damage to plant; 0=no damage to plant); for pest or weed control at 62.5 g/ha / pest or weed control at 250 g/ha: evaluated after 13 days; for pest or weed control at 250 g/ha: 250 g ai/ha, read-out: damage to plant, Pigweed, Redroot (100=total damage to plant; 0=no damage to plant)
In short: as §2

[12] = tested on: velvetleaf (Abutilon theophrasti); test: Test G Post-Emergence Protocol; conditions: Abutilon theophrasti, post-emergence, 312 h; for pest or weed control at 15.625 g/ha: 15.625 g ai/ha, evaluated after 13 days (100=total damage to plant; 0=no damage to plant), read-out: Velvetleaf damage rating; for pest or weed control at 62.5 g/ha: 62.5 g ai/ha, read-out: Velvetleaf damage rating (100=total damage to plant; 0=no damage to plant); for pest or weed control at 62.5 g/ha / pest or weed control at 250 g/ha: evaluated after 13 days; for pest or weed control at 250 g/ha: 250 g ai/ha, read-out: damage to plant, Velvetleaf (100=total damage to plant; 0=no damage to plant)
In short: as §2

| Compound | pest or weed control at 15.625 g/ha [1] | pest or weed control at 62.5 g/ha [1] | pest or weed control at 250 g/ha [1] | plant injury at 15.625 g/ha [2] | plant injury at 62.5 g/ha [2] | plant injury at 250 g/ha [2] | pest or weed control at 15.625 g/ha [3] | pest or weed control at 62.5 g/ha [3] | pest or weed control at 250 g/ha [3] | pest or weed control at 15.625 g/ha [4] | pest or weed control at 62.5 g/ha [4] | pest or weed control at 250 g/ha [4] | pest or weed control at 15.625 g/ha [5] | pest or weed control at 62.5 g/ha [5] | pest or weed control at 250 g/ha [5] | pest or weed control at 15.625 g/ha [6] | pest or weed control at 62.5 g/ha [6] | pest or weed control at 250 g/ha [6] | pest or weed control at 15.625 g/ha [7] | pest or weed control at 62.5 g/ha [7] | other results |
| --- | --- | --- | --- | --- | --- | --- | --- | --- | --- | --- | --- | --- | --- | --- | --- | --- | --- | --- | --- | --- | --- |
| Cc1cccc(NC(=O)[C@H]2C(=O)N(C)C[C@@H]2c2ccc(C(F)(F)F)cc2)c1C#N (racemic) [Compound 1413] | 0% | 20% | 80% | 0% | 0% | 0% | 0% | 60% | 90% | 0% | 0% | 0% | 0% | 20% | 20% | 0% | 0% | 0% | 20% | 50% | pest or weed control at 250 g/ha [7]: 60%; plant injury at 15.625 g/ha [8]: 0%; plant injury at 62.5 g/ha [8]: 0%; plant injury at 250 g/ha [8]: 0%; pest or weed control at 15.625 g/ha [9]: 40%; pest or weed control at 62.5 g/ha [9]: 70%; pest or weed control at 250 g/ha [9]: 70%; pest or weed control at 15.625 g/ha [10]: 0%; pest or weed control at 62.5 g/ha [10]: 0%; pest or weed control at 250 g/ha [10]: 0%; pest or weed control at 15.625 g/ha [11]: 0%; pest or weed control at 62.5 g/ha [11]: 10%; pest or weed control at 250 g/ha [11]: 20%; pest or weed control at 15.625 g/ha [12]: 0%; pest or weed control at 62.5 g/ha [12]: 0%; pest or weed control at 250 g/ha [12]: 10% |
| C#Cc1ccccc1NC(=O)[C@H]1C(=O)N(C)C[C@@H]1c1ccc(C(F)(F)F)cc1 (racemic) [Compound 1422] | 0% | 0% | 0% | 0% | 0% | 0% | 0% | 10% | 50% | 0% | 0% | 0% | 0% | 0% | 0% | 0% | 0% | 0% | 0% | 0% | pest or weed control at 250 g/ha [7]: 0%; plant injury at 15.625 g/ha [8]: 10%; plant injury at 62.5 g/ha [8]: 10%; plant injury at 250 g/ha [8]: 0%; pest or weed control at 15.625 g/ha [9]: 0%; pest or weed control at 62.5 g/ha [9]: 0%; pest or weed control at 250 g/ha [9]: 20%; pest or weed control at 15.625 g/ha [10]: 0%; pest or weed control at 62.5 g/ha [10]: 0%; pest or weed control at 250 g/ha [10]: 0%; pest or weed control at 15.625 g/ha [11]: 0%; pest or weed control at 62.5 g/ha [11]: 0%; pest or weed control at 250 g/ha [11]: 0%; pest or weed control at 15.625 g/ha [12]: 0%; pest or weed control at 62.5 g/ha [12]: 0%; pest or weed control at 250 g/ha [12]: 0% |
| CN1C[C@H](c2ccc(C(F)(F)F)cc2)[C@@H](C(=O)NC2=NOC(C)(C)C2)C1=O (racemic) [Compound 1427] | 0% | 0% | 0% | 0% | 0% | 0% | 0% | 0% | 0% | 0% | 0% | 0% | 0% | 0% | 0% | 0% | 0% | 0% | 0% | 0% | pest or weed control at 250 g/ha [7]: 0%; plant injury at 15.625 g/ha [8]: 0%; plant injury at 62.5 g/ha [8]: 0%; plant injury at 250 g/ha [8]: 0%; pest or weed control at 15.625 g/ha [9]: 0%; pest or weed control at 62.5 g/ha [9]: 0%; pest or weed control at 250 g/ha [9]: 0%; pest or weed control at 15.625 g/ha [10]: 0%; pest or weed control at 62.5 g/ha [10]: 0%; pest or weed control at 250 g/ha [10]: 0%; pest or weed control at 15.625 g/ha [11]: 0%; pest or weed control at 62.5 g/ha [11]: 0%; pest or weed control at 250 g/ha [11]: 0%; pest or weed control at 15.625 g/ha [12]: 0%; pest or weed control at 62.5 g/ha [12]: 0%; pest or weed control at 250 g/ha [12]: 0% |
